A short description of data set [1]: Dynamic moisture sorption (DMS) assessment. Type of data set: physicochemical. Conditions: for crystalline form after the DMS experiment (by PXRD, DSC, TGA): 5% RH to 90% RH adsorption/desorption, 25° C.; for moisture picked up during the adsorption segment (DMS): 5% RH to 90% RH, isothermal 25° C., desorption matches adsorption, no hysteresis. As to the method:
Dynamic moisture sorption (DMS) measurements were performed for each crystalline form using a VTI atmospheric microbalance, SGA-100 system (VTI Corp., Hialeah, Fla. 33016). A weighed sample was used and the humidity was set at the ambient value at the start of the analysis. The DMS analysis consisted of a scan rate of 5% RH/step over the full humidity range of 5% relative humidity (RH) to 90% RH. The DMS run was performed isothermally at 25° C.

Data set [2] is described as follows: Slurry conversion of mixed anhydrous Form I and Form II in MTBE:water (95:5). Type of data set: physicochemical. The settings on record: equal amounts Form I and Form II, room temperature, three days. The protocol: Equal amounts (˜50 mg) of anhydrous Form I and anhydrous Form II were weighed out and physically mixed in a vial with a spatula. A solution of MTBE:water (95:5) was added to this solid mixture and stirred to form a suspension. The suspension was stirred at room temperature for three days and filtered through a filter paper. The solid residue was allowed to dry under ambient conditions and analyzed with powder X-ray diffractometry and DSC.

Some results are limits rather than exact numbers.

In the case of `CS(=O)(=O)C[C@@H](Oc1ccc(C(F)(F)F)cc1)[C@H]1CCNC1` [monohydrate, (S)-3-[(S)-2-methanesulfonyl-1-(4-trifluoromethylphenoxy)ethyl]pyrrolidine], in data set [1], the “crystalline form after the DMS experiment (by PXRD, DSC, TGA)” value (“crystalline form” below) is “remains as the monohydrate form” and the “moisture picked up during the adsorption segment (DMS)” value is on record as “less than 1 % by weight”.

Take `CS(=O)(=O)C[C@@H](Oc1ccc(C(F)(F)F)cc1)[C@H]1CCNC1` [anhydrous Form II, (S)-3-[(S)-2-methanesulfonyl-1-(4-trifluoromethylphenoxy)ethyl]pyrrolidine]: in data set [1], the “crystalline form” value is “remains as Form II” and the “moisture picked up during the adsorption segment (DMS)” value is on record as “less than 1 % by weight”.

As for `CS(=O)(=O)C[C@@H](Oc1ccc(C(F)(F)F)cc1)[C@H]1CCNC1` [anhydrous Form I, (S)-3-[(S)-2-methanesulfonyl-1-(4-trifluoromethylphenoxy)ethyl]pyrrolidine], in data set [2], the “anhydrous Form II content of the filtered solid (PXRD)” value was greater than 95% and the “form conversion under slurry conditions” value is “converted to anhydrous Form II”. Moreover, the “crystalline form” value in data set [1] was “converted to the monohydrate form”. The “moisture uptake between 60% RH and 65% RH (DMS adsorption segment)” value in data set [1] (gradual uptake until 60% RH, isotherm flat 65% RH to 90% RH, moisture not lost on desorption) was “rapid”.
